# Measurements from patent US9763445B2, “Safened herbicidal compositions comprising a pyridine carboxylic acid herbicide” (Dow AgroSciences, LLC, priority 2014, dated 2017).
# What was measured:
# [1] = tested on: purple deadnettle (LAMPU); experiment: Postemergence greenhouse trial, % visual injury on purple deadnettle; assay type: in vivo, Lamium purpureum; settings: LAMPU
# Procedure: Seeds of the desired test plant species were planted in Sun Gro MetroMix® 306 planting mixture, which typically has a pH of 6.0 to 6.8 and an organic matter content of about 30 percent, in plastic pots with a surface area of 103.2 square centimeters (cm^2). When required to ensure good germination and healthy plants, a fungicide treatment and/or other chemical or physical treatment was applied. The plants were grown for 7-36 days (d) in a greenhouse with an approximate 14-hour (h) photoperiod which was maintained at about 23° C. during the day and 22° C. during the night. Nutrients and water were added on a regular basis and supplemental lighting was provided with overhead metal halide 1000-Watt lamps as necessary. The plants were employed for testing when they reached the second or third true leaf stage.
# Weighed amounts of technical material were dissolved in a volume of 97:3 volume per volume (v/v) acetone/dimethyl sulfoxide (DMSO) to stock solutions. […] The concentrated stock solutions were diluted with an aqueous mixture of 1.5% v/v of Agri-dex crop oil concentrate to provide the appropriate application rates. Compound requirements are based upon a 12 milliliter (mL) application volume at a rate of 187 liters per hectare (L/ha). Stocks solutions of the safeners were prepared following the same procedure. Spray solutions of the safeners and experimental compound mixtures were prepared by adding the stock solutions to the appropriate amount of dilution solution to form a 12 mL spray solution in two-way combinations. Formulated compounds were applied to the plant material with an overhead Mandel track sprayer equipped with 8002E nozzles calibrated to deliver 187 L/ha over an application area of 0.503 square meters (m^2) at a spray height of 18 inches (43 centimeters (cm)) above average plant canopy. Control plants were sprayed in the same manner with the solvent blank. All herbicide application (component a) rates are in g ae/ha and all safener (component b) rates are in g ai/ha.
# The treated plants and control plants were placed in a greenhouse as described above and watered by sub-irrigation to prevent wash-off of the test compounds. After 20-22 d, the condition of the test plants as compared with that of the control plants was determined visually and scored on a scale of 0 to 100 percent where 0 corresponds to no injury and 100 corresponds to complete kill. […] Colby's equation was used to determine the herbicidal effects expected from the mixtures. […]
# kochia (KCHSC) = experiment: Postemergence greenhouse trial, % visual injury on kochia; assay type: in vivo, Kochia scoparia; settings: KCHSC; for % visual injury, Ob: CQC-m 0 g/ha
# Outline: (§1)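 Herbicide rates g ae/ha, safener (cloquintocet-mexyl) rates g ai/ha; spray carrier 1.5% v/v crop oil concentrate, 187 L/ha, 2nd–3rd leaf stage. Rating: visual % injury at 20-22 d.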
# common poppy (PAPRH) = experiment: Postemergence greenhouse trial, % visual injury on common poppy; assay type: in vivo, Papaver rhoeas; settings: PAPRH; for % visual injury, Ob: CQC-m 0 g/ha
# Outline: as §1
# spring barley (HORVS) = experiment: Postemergence greenhouse trial, % visual injury on spring barley; assay type: in vivo, Hordeum vulgare; settings: HORVS
# Outline: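 Greenhouse crops at second to third true leaf stage sprayed postemergence at 187 L/ha with herbicide (g ae/ha) plus safener (g ai/ha) in acetone/DMSO diluted into 1.5% v/v Agri-dex. Injury scored visually versus solvent-blank controls after 20-22 d, 0 (none) to 100% (complete kill); expected mixture effects by Colby's equation.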
# lambsquarters (CHEAL) = experiment: Postemergence greenhouse trial, % visual injury on lambsquarters; assay type: in vivo, Chenopodium album; settings: Chenopodium album, post-emergence, CHEAL, CQC-m 0, read-out: % visual injury, Ob
# Outline: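 Visual injury, 0 (none) to 100 (complete kill), rated 20-22 d after overhead track-sprayer application at 187 L/ha; Colby's equation gave expected mixture responses. Herbicide (g ae/ha) and cloquintocet-mexyl safener (g ai/ha) diluted in aqueous 1.5% v/v Agri-dex, applied to weeds at 2–3 true leaves.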
# wild mustard (SINAR) = experiment: Postemergence greenhouse trial, % visual injury on wild mustard; assay type: in vivo, Sinapis arvensis; settings: SINAR; for % visual injury, Ob: CQC-m 0 g/ha
# Outline: as §1
# [2] = tested on: bird's-eye speedwell (VERPE); experiment: Postemergence greenhouse trial, % visual injury on bird's-eye speedwell; assay type: in vivo, Veronica persica; settings: VERPE, CQC-m 0 g/ha
# Outline: as §1
# [3] = compound 4.375 g/ha, CQC-m 0 g/ha
# [4] = compound 8.75 g/ha, CQC-m 0 g/ha
# [5] = compound 17.5 g/ha, CQC-m 0 g/ha
compound,measurement,setting,value
CCCCOC(=O)c1nc(-c2ccc3cc[nH]c3c2F)c(F)c(N)c1Cl [compound 9],"% visual injury, Ob","[1]; compound 4.380 g/ha, CQC-m 0",83%
same,"% visual injury, Ob","[1]; compound 8.75 g/ha, CQC-m 0",90%
same,"% visual injury, Ob","[1]; compound 17.5 g/ha, CQC-m 0",100%
same,"% visual injury, Ob","[1]; compound 35 g/ha, CQC-m 0",100%
same,"% visual injury, Ob","[1]; compound 70 g/ha, CQC-m 0",100%
same,pest or weed control at 4.38 g/ha,"kochia (KCHSC); Bassia scoparia, post-emergence, compound 4.380 g/ha, CQC-m 0, read-out: % visual injury, Ob",60%
same,pest or weed control at 8.75 g/ha,"kochia (KCHSC); Bassia scoparia, post-emergence, compound 8.75 g/ha, CQC-m 0, read-out: % visual injury, Ob",60%
same,pest or weed control at 17.5 g/ha,"kochia (KCHSC); Bassia scoparia, post-emergence, compound 17.5 g/ha, CQC-m 0, read-out: % visual injury, Ob",85%
same,pest or weed control at 35 g/ha,"kochia (KCHSC); Bassia scoparia, post-emergence, compound 35 g/ha, CQC-m 0, read-out: % visual injury, Ob",100%
same,pest or weed control at 70 g/ha,"kochia (KCHSC); Bassia scoparia, post-emergence, compound 70 g/ha, CQC-m 0, read-out: % visual injury, Ob",100%
same,pest or weed control at 4.38 g/ha,"common poppy (PAPRH); Papaver rhoeas, post-emergence, compound 4.380 g/ha, CQC-m 0, read-out: % visual injury, Ob",90%
same,pest or weed control at 8.75 g/ha,"common poppy (PAPRH); Papaver rhoeas, post-emergence, compound 8.75 g/ha, CQC-m 0, read-out: % visual injury, Ob",87%
same,pest or weed control at 17.5 g/ha,"common poppy (PAPRH); Papaver rhoeas, post-emergence, compound 17.5 g/ha, CQC-m 0, read-out: % visual injury, Ob",100%
same,pest or weed control at 35 g/ha,"common poppy (PAPRH); Papaver rhoeas, post-emergence, compound 35 g/ha, CQC-m 0, read-out: % visual injury, Ob",93%
same,pest or weed control at 70 g/ha,"common poppy (PAPRH); Papaver rhoeas, post-emergence, compound 70 g/ha, CQC-m 0, read-out: % visual injury, Ob",100%
same,"% visual injury, Ob","spring barley (HORVS); compound 4.380 g/ha, CQC-m 0",10%
same,"% visual injury, Ob","spring barley (HORVS); compound 8.75 g/ha, CQC-m 0",20%
same,"% visual injury, Ob","spring barley (HORVS); compound 17.5 g/ha, CQC-m 0",30%
same,"% visual injury, Ob","spring barley (HORVS); compound 35 g/ha, CQC-m 0",40%
same,"% visual injury, Ob","spring barley (HORVS); compound 70 g/ha, CQC-m 0",50%
same,pest or weed control at 4.38 g/ha,lambsquarters (CHEAL); compound 4.380 g/ha,85%
same,pest or weed control at 8.75 g/ha,lambsquarters (CHEAL); compound 8.75 g/ha,80%
same,pest or weed control at 17.5 g/ha,lambsquarters (CHEAL); compound 17.5 g/ha,95%
same,pest or weed control at 35 g/ha,lambsquarters (CHEAL); compound 35 g/ha,100%
same,pest or weed control at 70 g/ha,lambsquarters (CHEAL); compound 70 g/ha,100%
same,pest or weed control at 4.38 g/ha,"wild mustard (SINAR); Brassica, post-emergence, compound 4.380 g/ha, CQC-m 0, read-out: % visual injury, Ob",93%
same,pest or weed control at 8.75 g/ha,"wild mustard (SINAR); Brassica, post-emergence, compound 8.75 g/ha, CQC-m 0, read-out: % visual injury, Ob",95%
same,pest or weed control at 17.5 g/ha,"wild mustard (SINAR); Brassica, post-emergence, compound 17.5 g/ha, CQC-m 0, read-out: % visual injury, Ob",95%
same,pest or weed control at 35 g/ha,"wild mustard (SINAR); Brassica, post-emergence, compound 35 g/ha, CQC-m 0, read-out: % visual injury, Ob",100%
same,pest or weed control at 70 g/ha,"wild mustard (SINAR); Brassica, post-emergence, compound 70 g/ha, CQC-m 0, read-out: % visual injury, Ob",100%
Nc1cc(-c2ccc3cc[nH]c3c2F)nc(C(=O)O)c1Cl [compound 15],"% visual injury, Ob",[1]; [3],93%
same,"% visual injury, Ob",[1]; [4],95%
same,"% visual injury, Ob",[1]; [5],93%
same,"% visual injury, Ob","[1]; compound 35 g/ha, CQC-m 0 g/ha",93%
same,"% visual injury, Ob","[1]; compound 70 g/ha, CQC-m 0 g/ha",95%
same,"% visual injury, Ob",kochia (KCHSC); compound 4.375 g/ha,10%
same,"% visual injury, Ob",kochia (KCHSC); compound 8.75 g/ha,10%
same,"% visual injury, Ob",kochia (KCHSC); compound 17.5 g/ha,50%
same,"% visual injury, Ob",kochia (KCHSC); compound 35 g/ha,60%
same,"% visual injury, Ob",kochia (KCHSC); compound 70 g/ha,75%
same,"% visual injury, Ob",common poppy (PAPRH); compound 4.375 g/ha,90%
same,"% visual injury, Ob",common poppy (PAPRH); compound 8.75 g/ha,100%
same,"% visual injury, Ob",common poppy (PAPRH); compound 17.5 g/ha,100%
same,"% visual injury, Ob",common poppy (PAPRH); compound 35 g/ha,100%
same,"% visual injury, Ob",spring barley (HORVS); [3],0%
same,"% visual injury, Ob",spring barley (HORVS); [4],0%
same,"% visual injury, Ob",spring barley (HORVS); [5],0%
same,"% visual injury, Ob","spring barley (HORVS); compound 35 g/ha, CQC-m 0 g/ha",10%
same,"% visual injury, Ob","spring barley (HORVS); compound 70 g/ha, CQC-m 0 g/ha",10%
same,"% visual injury, Ob",[2]; compound 4.375 g/ha,85%
same,"% visual injury, Ob",[2]; compound 8.75 g/ha,85%
same,"% visual injury, Ob",[2]; compound 17.5 g/ha,90%
same,"% visual injury, Ob",[2]; compound 35 g/ha,93%
same,"% visual injury, Ob",[2]; compound 70 g/ha,95%
same,"% visual injury, Ob",wild mustard (SINAR); compound 4.375 g/ha,93%
same,"% visual injury, Ob",wild mustard (SINAR); compound 8.75 g/ha,100%
same,"% visual injury, Ob",wild mustard (SINAR); compound 17.5 g/ha,100%
same,"% visual injury, Ob",wild mustard (SINAR); compound 35 g/ha,100%
same,"% visual injury, Ob",wild mustard (SINAR); compound 70 g/ha,100%
